The values below are quoted from earlier work in US20200338088A1, “Methods for Treating Neutrophilic Dermatoses with SYK Inhibitors” (Rush University Medical Center, priority 2018, published 2020).

This data set relates to rat collagen-induced arthritis model. The following applies: daily oral dose of 10 mg/kg (10 μg/g), after 7 days.

`c1cn2cc(-c3ccc4cn[nH]c4c3)nc(Nc3ccc(N4CCOCC4)cc3)c2n1` [GS-9973, 6-(1H-indazol-6-yl)-N-(4-morpholin-4-ylphenyl)imidazo[1,2-a]pyrazin-8-amine]: the ankle inflammation result was “significantly inhibited ankle inflammation”.
